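All cell lines were grown in 96-well plates and treated with compound for 48 hours. GI50 = concentration required for 50% inhibition of growth. TGI: concentration producing complete growth inhibition.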 A value given as a limit tells only on which side of the number the result lay.

What all share (assay): inhibition of tumour cell growth, NCI panel, 48 h
The test system of experiment [1] is SF-539 CNS.
The test system of experiment [2] is UACC-62 melanoma.
The subject of experiment [3] is OVCAR-4 ovarian.
In experiment [4] the test system is OVCAR-8 ovarian.
Experiment [5] has as its system KM12 colon.
Experiment [6] relates to HCC-2998 colon.
The subject of experiment [7] is UACC-257 melanoma.
For experiment [8], the system named is IGROV1 ovarian.
Experiment [9] has as its system HS 578T breast.

As to `Cc1ccc(S(=O)(=O)C2CC2(Cl)Cl)cc1` (stereo not drawn), the TGI was greater than 100 µM in experiment [1]; 60.4 µM in [2]; 13.8 µM in experiment [3]; 41 µM in experiment [4]; greater than 100 µM in [5]; greater than 100 µM in experiment [6]. The TGI in [7] was found to be 44 µM; in [8], 72.1 µM.
On to `O=C(N/C(=C\c1ccc(/C=C(\NC(=O)c2ccccc2)c2nc3c(O)nc(S)nc3[nH]2)cc1)c1nc2c(O)nc(S)nc2[nH]1)c1ccccc1`, for which the TGI in [1], in experiment [2], in [3], in [4], in [5] and in experiment [6] was greater than 100 µM each time. Further, the TGI in experiment [7] and in [8] was greater than 100 µM throughout.
For the compound `O=C(Oc1c(Cl)cc(Cl)cc1Cl)c1ccccc1Nc1ccnc(C(F)(F)F)c1`, the GI50 is 1.74 µM in experiment [2]; 3.04 µM in experiment [4]; 4.11 µM in [5]; 12.2 µM in experiment [7]; greater than 100 µM in experiment [8]. Moreover, the TGI in [2] was 6.06 µM; in experiment [4] it was 49.9 µM; in experiment [5], 32.5 µM; in experiment [7] it was 57.3 µM; in experiment [8] it was greater than 100 µM.
Turning to `CC1=C2C=CC(=O)C[C@@]2(C)CCC1`, the TGI in experiment [1], in experiment [2], in [3], in [4], in experiment [5] and in experiment [6] was greater than 100 µM each time. Moreover, the TGI in experiment [7] and in [8] was greater than 100 µM in each case.
Take `CN(CCCCCl)P(=O)(OCc1ccc([N+](=O)[O-])o1)OCC1OC(n2cc([N+](=O)[O-])c(=O)[nH]c2=O)CC1O` (stereo not drawn): the GI50 was 4.51 µM in [1]; 49.2 µM in [2]; greater than 100000 nM in experiment [9]; 9.75 µM in experiment [3]; 41.6 µM in [4]; greater than 100 µM in experiment [5]. Moreover, the GI50 in experiment [6] was 37.7 µM; in experiment [7] it was greater than 100 µM; in [8] it was greater than 100 µM. In addition, the TGI in experiment [1] was greater than 100 µM; in experiment [2] it was greater than 100 µM; in experiment [9], greater than 100 µM; in experiment [3], 84.8 µM; in experiment [4] it was greater than 100 µM; in [5] it was greater than 100 µM. The TGI in experiment [6], in [7] and in experiment [8] was greater than 100 µM throughout.
Consider `S=C(SSC(=S)N1CCCCC1)N1CCCCC1`, for which the GI50 is 14.2 µM in experiment [1]; 16 µM in experiment [2]; 21000 nM in experiment [9]; 9.65 µM in experiment [3]; 16.2 µM in [4]; 13.9 µM in experiment [5]. Further, the results for the GI50 in experiment [6] and in experiment [7] were 28.9 µM and 23.6 µM, respectively. Also, the TGI in experiment [1] was 32.6 µM; in experiment [2], 49.1 µM; in [9] it was greater than 100 µM; in experiment [3] it was 48.9 µM; in experiment [4], 60.9 µM; in experiment [5], 29 µM. In addition, the values for the TGI in [6] and in [7] were greater than 100 µM and 82.9 µM, respectively.
Take `CCN(CC)c1ccc(C2N3CCCCC3[C@@H]3c4[nH]c5ccccc5c4CCN23)cc1` (stereo partly drawn): the TGI is 41.6 µM in experiment [1]; 36.6 µM in [2]; greater than 100 µM in [3]; greater than 100 µM in [4]; 77.8 µM in experiment [7]; greater than 100 µM in [8].
With `CC(=O)CC(=O)Nc1ccccc1C(F)(F)F`, the TGI in experiment [1], in [2], in experiment [3], in experiment [4], in experiment [6] and in experiment [8] was greater than 100 µM throughout.
Turning to `COc1cc(C(=O)O[C@H](C(=O)NCCCCNC(=O)[C@@H](OC(=O)c2cc(OC)cc3c(C)cccc23)[C@]2(C)CO2)[C@]2(C)CO2)c2cccc(C)c2c1`, the GI50 was less than 0.0385 µM in [1]; 1.5 µM in [2]; 479 nM in experiment [9]; 0.218 µM in [3]; 0.0192 µM in [4]; 0.139 µM in experiment [5]. Besides, the GI50 in experiment [6] is 0.0442 µM. Also, the TGI in [1] is 0.266 µM; in experiment [2] it was 3.64 µM; in [9], greater than 100 µM; in [3], 2.08 µM; in experiment [4] it was 0.206 µM; in experiment [5] it was 0.802 µM. The figures for the TGI in [6], in [7] and in [8] were 0.343 µM, 0.222 µM and 0.944 µM, respectively.
Take `O=C1C(Cl)=C(NCCCN(CCCNC2=C(Cl)C(=O)c3ccccc3C2=O)C2=C(Cl)C(=O)c3ccccc3C2=O)C(=O)c2ccccc21`: the GI50 in experiment [1] is 2.45 µM; in experiment [2] it was 1.98 µM; in experiment [9] it was 2880 nM; in [3] it was 1.49 µM; in experiment [4] it was 3 µM; in experiment [5], 3 µM. Further, the GI50 in experiment [6] is 2.45 µM; in experiment [8], 1.76 µM. For the same compound, the TGI in [1] is 6.71 µM; in [2], 4.69 µM; in [9], greater than 100 µM; in experiment [3], 2.85 µM; in [4] it was 10.5 µM; in experiment [5], 12.8 µM. Besides, the TGI in experiment [6] turned out to be 6.37 µM; in experiment [8], 6.13 µM.
As to `CC(=O)[CH-]C(=O)c1ccccc1.CC(=O)[CH-]C(=O)c1ccccc1.CC(=O)[CH-]C(=O)c1ccccc1.[Ga+3]`, the GI50 was 16.5 µM in experiment [1]; 16.4 µM in [2]; 17.1 µM in experiment [3]; 14.8 µM in experiment [4]; 16.8 µM in [5]; 13.9 µM in experiment [6]. In addition, the GI50 was 16.2 µM in experiment [7] and 18.6 µM in [8]. The TGI in [1] turned out to be 32.3 µM; in [2], 30 µM; in experiment [3], 34.5 µM; in experiment [4] it was 29.2 µM; in experiment [5], 31.1 µM; in experiment [6], 29.9 µM. Moreover, the TGI in experiment [7] worked out at 31.5 µM; in experiment [8] it was 46.4 µM.
